Biological target: T1, KRAS 4B G12C protein (Homo sapiens, UniProt P01116, G12C)
T1 construct: This protein contained 188 amino acids in total, including an N-terminal 6-Histidine tag; made in house; host or cells: E. coli BL21
Experiment: In vitro covalent adduct formation (CAF) assay by LC-MS
Assay type: binding
Conditions: compound 10 μM, protein 5 μM, 22° C., percentage of protein bound by the compound
Procedure: In vitro covalent adduct formation assay: Covalent adduct formation (CAF) reactions between Cys12 of the KRAS 4B G12C protein and some of the compounds of Table 1 were measured in vitro using liquid chromatography-mass spectrometry (LC-MS).
Recombinant Human KRAS 4B protein containing the G12C mutation was used in compound screening experiments. This protein contained 188 amino acids in total, including an N-terminal 6-Histidine tag, followed by a Tobacco Etch Virus (TEV) tag, followed by residues 1-169 of the native KRAS 4B sequence. The exact mass of the protein was 21,310 Da as determined by mass spectrometry. The full amino acid sequence is shown below:
The recombinant protein was expressed in E. coli BL21 cells and purified using affinity chromatography via a Ni-NTA column. […] Pure KRAS 4B G12C protein was diluted to a concentration of 5 μM in Tris Buffered Saline, pH 7.4. The compounds were dissolved in DMSO and added to the diluted protein to make a 10 μM concentration. The total DMSO concentration in the reaction was 4%. The reaction was mixed by pipetting and incubated at 22° C. for one hour. Aliquots of the reaction were taken over time and diluted 2:1 in 0.1% formic acid. The intact mass of the protein samples was measured by LC-MS using a QExactive+ mass spectrometer (Thermo Scientific). An amount of 500 ng total protein was injected onto a C8 reverse phase column, eluted with a seven-minute gradient of 30%-90% acetonitrile/0.1% formic acid, and analyzed for intact mass by the mass spectrometer. Adducts identified were confirmed to be within 1 Dalton of the expected mass, and the relative ratios of free:adduct protein were used to quantify the percentage of protein bound by the compound. CAF reactions were run in duplicate, with a typical variability of ±5%.

Row | Compound | CAF (10 minutes/60 minutes) at 10 micromolar: 10 minutes | CAF (10 minutes/60 minutes) at 10 micromolar: 60 minutes
1 | C=CC(=O)N1CCN(c2nc(OC[C@@H]3CCCN3C)nc3c2CN(Cc2cc(C)ccc2C)C3)C[C@@H]1CC#N [1-70] | 77% | 94%
2 | C=CC(=O)N1CCN(c2nc(OC[C@@H]3CCCN3C)nc3c2CN(Cc2cc(OC)ccc2Cl)C3)C[C@@H]1CC#N [1-68] | 90% | 97%
3 | C=CC(=O)N1CCN(c2nc(OC[C@@H]3CCCN3C)nc3c2CN(C2CCc4ccccc42)C3)C[C@@H]1CC#N (some centres unmarked) [1-42] | 84% | 95%
4 | C=CC(=O)N1CCN(c2nc(OC[C@@H]3CCCN3C)nc3c2CN(Cc2c(Cl)cccc2OC)C3)C[C@@H]1CC#N [1-38] | 97%/ 97% | 97%/ 97%
5 | C=CC(=O)N1CCN(c2nc(OC[C@@H]3CCCN3C)nc3c2CN(c2cccc4cccc(C)c24)C3)[C@@H](C)C1 [1-31] | 0% | 6%
6 | C=CC(=O)N1CCN(c2nc(OC)nc3c2CN(Cc2cc(O)ccc2Cl)C3)C[C@@H]1CC#N [1-78] | 89% | 97%
7 | C=CC(=O)N1CCN(c2nc(OC[C@@H]3CCCN3C)nc3c2CN(C2CCCc4ccccc42)C3)C[C@@H]1CC#N (stereo partly drawn) [1-52 (2nd isomer)] | 76% | 91%
8 | C=CC(=O)N1CCN(c2nc(OC[C@@H]3CCCN3C)nc3c2CN(Cc2cc(OC)ccc2F)C3)C[C@@H]1CC#N [1-39] | 51% | 72%
9 | C=CC(=O)N1CC2COCC(C1)N2c1nc(OC[C@@H]2CCCN2C)nc2c1CN(Cc1cc(OC)ccc1Cl)C2 [1-88] | 0%/ 0% | 0%/ 0%
10 | C=CC(=O)N1CCN(c2nc(OC[C@@H]3CCCN3C)nc3c2CN(C(=O)c2cccc(C(F)F)c2)C3)[C@@H](C)C1 [1-24] | 0%/ 0% | 0%/ 0%
11 | C=CC(=O)N1CCN(c2nc(OC[C@@H]3CCCN3C)nc3c2CN(Cc2cc(C)ccc2Cl)C3)C[C@@H]1CC#N [1-80] | 94% | 96%
12 | C=CC(=O)N1C2CC(=O)CC1CN(c1nc(O[C@@H]3CN(C)C[C@H]3OC)nc3c1CN(C1CCc4ccccc41)C3)C2 (some centres unmarked) [1-232] | 0%/ 0% | 0%/ 0%
13 | C=CC(=O)N1CCN(c2nc(OC[C@@H]3CCCN3C)nc3c2CN(Cc2ccccc2Cl)C3)C[C@@H]1CC#N [1-75] | 96% | 97%
14 | C=CC(=O)N1CCN(c2nc(OC[C@@H]3CCCN3C)nc3c2CN(C(C)c2cc(F)ccc2C)C3)C[C@@H]1CC#N (some centres unmarked) [1-73] | 61% | 86%
15 | C=CC(=O)N1CCN(c2nc(OC[C@@H]3CCCN3C)nc3c2CN(C2CCCc4cccc(Cl)c42)C3)C[C@@H]1CC#N (some centres unmarked) [1-72] | 95% | 98%
16 | C=CC(=O)N1CCN(c2nc(OC[C@@H]3CCCN3C)nc3c2CN(C2CCc4cccc(Cl)c42)C3)C[C@@H]1CC#N (some centres unmarked) [1-84] | 98% | 99%
17 | C=CC(=O)N1CCN(c2nc(OC[C@@H]3CCCN3C)nc3c2CN(c2cccc4cccc(C)c24)C3)C[C@@H]1CC#N [1-17, 2-((S)-1-acryloyl-4-(6-(8-methylnaphthalen-1-yl)-2-(((S)-1-methylpyrrolidin-2-yl)methoxy)-6,7-dihydro-5H-pyrrolo[3,4-d]pyrimidin-4-yl)piperazin-2-yl)acetonitrile] | 90% | 99%

Second part, the compound after the results:

Row | CAF (10 minutes/60 minutes) at 10 micromolar: 10 minutes | CAF (10 minutes/60 minutes) at 10 micromolar: 60 minutes | Compound
18 | 0%/ 0% | 0%/ 0% | C=CC(=O)N1CCN(c2nc(O[C@@H]3CN(C)C[C@H]3OC)nc3c2CN(C2CCc4ccccc42)C3)C2COCC21 (some centres unmarked) [1-227]
19 | 87% | 96% | C=CC(=O)N1CCN(c2nc(OC[C@@H]3CCCN3C)nc3c2CN(C(C)c2c(O)cccc2F)C3)C[C@@H]1CC#N (some centres unmarked) [1-111]
20 | 0% | 1% | C=CC(=O)N1CCN(c2nc(OC[C@@H]3CCCN3C)nc3c2CN(C2CCc4ccccc42)C3)C[C@@H]1CCO (some centres unmarked) [1-101]
21 | 96% | 97% | C=CC(=O)N1CCN(c2nc(OC[C@@H]3CCCN3C)nc3c2CN(Cc2cc(O)ccc2CC)C3)C[C@@H]1CC#N [1-184]
22 | 59% | 75% | C=CC(=O)N1CCN(c2nc(OC[C@@H]3CCCN3C)nc3c2CN(C2COc4ccccc42)C3)C[C@@H]1CC#N (some centres unmarked) [1-106]
23 | 81% | 91% | C=CC(=O)N1CCN(c2nc(OC[C@@H]3CCCN3CCF)nc3c2CN(C2CCc4ccccc42)C3)C[C@@H]1CC#N (some centres unmarked) [1-151]
24 | 0%/ 0% | 0%/ 0% | C=CC(=O)N1CCN(c2nc(OC[C@@H]3CCCN3C)nc3c2C(C(F)(F)F)N(Cc2ccccc2)C3)C[C@@H]1CC#N (stereo partly drawn) [1-181, 2-((2S)-1-acryloyl-4-(6-benzyl-2-(((S)-1-methylpyrrolidin-2-yl)methoxy)-5-(trifluoromethyl)-6,7-dihydro-5H-pyrrolo[3,4-d]pyrimidin-4-yl)piperazin-2-yl)acetonitrile]
25 | 95% | 97% | C=CC(=O)N1CCN(c2nc(OC[C@@H]3CCCN3C)nc3c2CN(Cc2ccccc2C(C)C)C3)C[C@@H]1CC#N [1-168]
26 | 0%/ 0% | 0%/ 0% | C=CC(=O)N1CCN(c2nc(OC[C@@H]3CCCN3C)nc3c2CN(Cc2c(Cl)cccc2OC(F)F)C3)C[C@@H]1C [1-85]
27 | 31% | 78% | C=CC(=O)N1CCN(c2nc(OC[C@@H]3CCCN3C)nc3c2CN(Cc2c(C)cc(C)c(O)c2C)C3)C[C@@H]1CC#N [1-324]
28 | 0% | 5% | C=CC(=O)N1CCN(c2nc(OC[C@@H]3CCCN3C)nc3c2CN(C2CCc4ccccc42)C3)C[C@@H]1CC(F)(F)F (some centres unmarked) [1-100]
29 | 0% | 3% | C=CC(=O)N1CCN(c2nc(OC[C@@H]3CCCN3C)nc3c2CN(Cc2c(Cl)cccc2OC)C3)C[C@@H]1CO [1-107]
30 | 0%/ 0% | 0%/ 0% | C=CC(=O)N1CCN(c2nc(OC[C@@H]3CCCN3C)nc3c2CN(Cc2c(Cl)cccc2OC)C3)C[C@@H]1CC(F)(F)F [1-125]
31 | 0%/ 0% | 0%/ 0% | CN1CCC[C@H]1COc1nc2c(c(N3CCN(C(=O)C45CC4C5)[C@@H](CC#N)C3)n1)CN(C1CCc3ccccc31)C2 (some centres unmarked) [1-316]
32 | 31% | 53% | C=CC(=O)N1CCN(c2nc(O[C@@H]3CN(C)C[C@H]3OC)nc3c2CN(C2CCc4ccccc42)C3)C[C@@H]1CC#N (some centres unmarked) [1-170]
33 | 94% | 95% | C=CC(=O)N1CCN(c2nc(OC[C@@H]3CCCN3C)nc3c2CN(Cc2c(Cl)ccc4nc[nH]c24)C3)C[C@@H]1CC#N [1-229]
34 | 0% | 7% | C=CC(=O)N1CCN(c2nc(O)nc3c2CN(C2CCc4ccccc42)C3)C[C@@H]1CC#N (some centres unmarked) [1-135]
35 | 0% | 18% | C=CC(=O)N1CCN(c2nc(OC[C@@H]3CCCN3C3CC(=O)C3)nc3c2CN(C2CCc4ccccc42)C3)C[C@@H]1CC#N (some centres unmarked) [1-208]
36 | 92% | 94% | C=CC(=O)N1CCN(c2nc(OC[C@@H]3CCCN3C)nc3c2CN(Cc2c(CC)ccc(O)c2C)C3)C[C@@H]1CC#N [1-255]
37 | 0%/ 0% | 0%/ 0% | CN1CCC[C@H]1COc1nc2c(c(N3CCN(C(=O)C45CC4C5)[C@@H](CC#N)C3)n1)CN(Cc1ccccc1Cl)C2 (some centres unmarked) [1-317]

From US20210292330A1, “PYRROLIDINE-FUSED HETEROCYCLES” (Erasca, Inc., priority 2020, published 2021)
